From PubChem BioAssay AID1963968 (Molecular Pharmacology Branch, DTP, NCI, 2024)

System: 945468-187-T-J3-PDC spheroids with HUVEC/MSC, viability
Experiment: Anticancer human tumor 945468-187-T-J3-PDC patient-derived rectal carcinoma cell line growth inhibition [PI3K]
Settings: for IC50: curve of first compound; for viability, T/C: stronger effect = lower value; active means viability on the fitted dose curve at most 10% of control; inactive means the rest
Procedure, shortened: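 We assembled tumor spheroids that included a stromal compartment of HUVEC and MSCs, then exposed them to targeted agents alone and together with PI3K pathway inhibitors. Concentration series descended by half-log from clinically achievable Cmax levels. Viability served as the endpoint.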

[1] = second compound 0.0316 µM, first compound 0.0316 µM
[2] = second compound 0.0316 µM, first compound 0.1 µM
[3] = second compound 0.1 µM, first compound 0.0316 µM
[4] = second compound 0.1 µM, first compound 0.1 µM
[5] = second compound 0.316 µM, first compound 0.0316 µM
[6] = second compound 0.316 µM, first compound 0.1 µM
[7] = second compound 1 µM, first compound 0.0316 µM
[8] = second compound 1 µM, first compound 0.1 µM
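Further: spheroids exposed to agents for 7 days before viability read.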
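Wherever viability, T/C is given: 100% = DMSO vehicle control viability.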

Cn1ncnc1[C@H]1c2n[nH]c(=O)c3cc(F)cc(c23)N[C@@H]1c1ccc(F)cc1 + Cc1nc(NC(=O)N2CCCC2C(N)=O)sc1-c1ccnc(C(C)(C)C(F)(F)F)c1
inactive: viability, T/C (second compound 0.0316 µM, first compound 0.000316 µM) 96.6% | viability, T/C (second compound 0.0316 µM, first compound 0.001 µM) 102% | viability, T/C (second compound 0.0316 µM, first compound 0.00316 µM) 101% | viability, T/C (second compound 0.0316 µM, first compound 0.01 µM) 116% | viability, T/C [1] 116% | viability, T/C [2] 114% | viability, T/C (second compound 0.1 µM, first compound 0.000316 µM) 105% | viability, T/C (second compound 0.1 µM, first compound 0.001 µM) 105% | viability, T/C (second compound 0.1 µM, first compound 0.00316 µM) 91.8% | viability, T/C (second compound 0.1 µM, first compound 0.01 µM) 106% | viability, T/C [3] 120% | viability, T/C [4] 100% | viability, T/C (second compound 0.316 µM, first compound 0.000316 µM) 111% | viability, T/C (second compound 0.316 µM, first compound 0.001 µM) 103% | viability, T/C (second compound 0.316 µM, first compound 0.00316 µM) 92.6% | viability, T/C (second compound 0.316 µM, first compound 0.01 µM) 118% | viability, T/C [5] 115% | viability, T/C [6] 105% | viability, T/C (second compound 1 µM, first compound 0.000316 µM) 118% | viability, T/C (second compound 1 µM, first compound 0.001 µM) 109% | viability, T/C (second compound 1 µM, first compound 0.00316 µM) 89.9% | viability, T/C (second compound 1 µM, first compound 0.01 µM) 115% | viability, T/C [7] 99.8% | viability, T/C [8] 97.4% | viability, T/C (second compound 3.16 µM, first compound 0.000316 µM) 116% | viability, T/C (second compound 3.16 µM, first compound 0.001 µM) 103% | viability, T/C (second compound 3.16 µM, first compound 0.00316 µM) 98.7% | viability, T/C (second compound 3.16 µM, first compound 0.01 µM) 109% | viability, T/C (second compound 3.16 µM, first compound 0.0316 µM) 107% | viability, T/C (second compound 3.16 µM, first compound 0.1 µM) 103% | viability, T/C (second compound 10 µM, first compound 0.000316 µM) 58.2% | viability, T/C (second compound 10 µM, first compound 0.001 µM) 68% | viability, T/C (second compound 10 µM, first compound 0.00316 µM) 61.3% | viability, T/C (second compound 10 µM, first compound 0.01 µM) 53.3% | viability, T/C (second compound 10 µM, first compound 0.0316 µM) 63.7% | viability, T/C (second compound 10 µM, first compound 0.1 µM) 51.3%
> 0.1 µM: IC50 (second compound 0.0316 µM) | IC50 (second compound 0.1 µM) | IC50 (second compound 0.316 µM) | IC50 (second compound 1 µM) | IC50 (second compound 3.16 µM) | IC50 (second compound 10 µM)

CCCS(=O)(=O)Nc1ccc(F)c(C(=O)c2c[nH]c3ncc(-c4ccc(Cl)cc4)cc23)c1F + CC(Nc1ccc2c(c1)OCCn1cc(N3C(=O)OCC3C(F)F)nc1-2)C(N)=O
6.37 µM: IC50 (second compound 0.316 µM)
7.15 µM: IC50 (second compound 0.1 µM)
inactive: viability, T/C (second compound 0.00316 µM, first compound 0.0316 µM) 105% | viability, T/C (second compound 0.00316 µM, first compound 0.1 µM) 96.9% | viability, T/C (second compound 0.00316 µM, first compound 0.316 µM) 93% | viability, T/C (second compound 0.00316 µM, first compound 1 µM) 104% | viability, T/C (second compound 0.00316 µM, first compound 3.16 µM) 97.1% | viability, T/C (second compound 0.00316 µM, first compound 10 µM) 17.3% | viability, T/C (second compound 0.01 µM, first compound 0.0316 µM) 105% | viability, T/C (second compound 0.01 µM, first compound 0.1 µM) 88.7% | viability, T/C (second compound 0.01 µM, first compound 0.316 µM) 104% | viability, T/C (second compound 0.01 µM, first compound 1 µM) 102% | viability, T/C (second compound 0.01 µM, first compound 3.16 µM) 110% | viability, T/C (second compound 0.01 µM, first compound 10 µM) 17.3% | viability, T/C [1] 98.5% | viability, T/C [2] 108% | viability, T/C (second compound 0.0316 µM, first compound 0.316 µM) 97.7% | viability, T/C (second compound 0.0316 µM, first compound 1 µM) 94.3% | viability, T/C (second compound 0.0316 µM, first compound 3.16 µM) 100% | viability, T/C (second compound 0.0316 µM, first compound 10 µM) 22.2% | viability, T/C [3] 101% | viability, T/C [4] 102% | viability, T/C (second compound 0.1 µM, first compound 0.316 µM) 104% | viability, T/C (second compound 0.1 µM, first compound 1 µM) 99.7% | viability, T/C (second compound 0.1 µM, first compound 3.16 µM) 121% | viability, T/C (second compound 0.1 µM, first compound 10 µM) 27% | viability, T/C [5] 98.7% | viability, T/C [6] 108% | viability, T/C (second compound 0.316 µM, first compound 0.316 µM) 98.5% | viability, T/C (second compound 0.316 µM, first compound 1 µM) 114% | viability, T/C (second compound 0.316 µM, first compound 3.16 µM) 97.6% | viability, T/C (second compound 0.316 µM, first compound 10 µM) 18.9% | viability, T/C [7] 66% | viability, T/C [8] 66.6% | viability, T/C (second compound 1 µM, first compound 0.316 µM) 74.9% | viability, T/C (second compound 1 µM, first compound 1 µM) 69.4% | viability, T/C (second compound 1 µM, first compound 3.16 µM) 51.1% | viability, T/C (second compound 1 µM, first compound 10 µM) 13.9%
3.27 µM: IC50 (second compound 1 µM)
6.24 µM: IC50 (second compound 0.00316 µM)
6.4 µM: IC50 (second compound 0.01 µM)
6.62 µM: IC50 (second compound 0.0316 µM)
